Results as given in patent US11207312B2, “Metallo-beta-lactamase inhibitors and methods of use thereof” (priority 2017, dated 2021).

What was measured:
[1] = system: P. aeruginosa MB9799 (efflux-, IMP-1 plasmid); format: cell-based, Pseudomonas aeruginosa; conditions: efflux − (MB9799) strain; imipenem at 2 μg/mL; in the presence of a class A, C, D serine β-lactamase inhibitor closely related to relebactam
Procedure, shortened: (§1)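 Isogenic P. aeruginosa PAO1 strains (efflux+ and multiple-efflux-pump-disrupted) carrying plasmid IMP-1, with inducible AmpC, tested by broth microdilution. Imipenem and/or ceftazidime fixed, usually at CLSI breakpoint, plus fixed class A/C β-lactamase inhibitor; titrated MBL inhibitor concentration restoring susceptibility recorded and compared between strains as efflux fold difference.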

[2] = system: Klebsiella pneumoniae expressing VIM-1 (IHMA599644); format: cell-based; conditions: with imipenem 1 μg/ml; 95% inhibition of bacterial growth
Procedure, shortened: (§2)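 Clinical MBL-producing strains were grown overnight at 35 °C on blood agar, suspended in saline, diluted 1:100 into 1.1× CAMHB and exposed to test compound with imipenem at 1 μg/ml. After 22–24 h at 35 °C, absorbance gave MITC95: lowest compound concentration inhibiting 95% of growth.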

[3] = system: Serratia marcescens expressing IMP-1 (CL5741); format: cell-based; conditions: with imipenem 1 μg/ml; 95% inhibition of bacterial growth
Procedure, shortened: as §2

[4] = system: Escherichia coli expressing NDM-1 (CLB30016); format: cell-based; conditions: with imipenem 1 μg/ml; 95% inhibition of bacterial growth
Procedure, shortened: as §2

VIM-2 = VIM-2 (Escherichia coli, UniProt Q5U7L7); assay: biochemical; conditions: CCF2-FA fluorescence assay; read-out: VIM2 IC50
NDM-1 = NDM-1 (Klebsiella pneumoniae, UniProt C7C422); assay: biochemical; format: biochemical; conditions: CCF2-FA fluorescence assay, 2 hours at 25° C.
Chain of NDM-1 (C7C422 whole entry, looked up, species assumed): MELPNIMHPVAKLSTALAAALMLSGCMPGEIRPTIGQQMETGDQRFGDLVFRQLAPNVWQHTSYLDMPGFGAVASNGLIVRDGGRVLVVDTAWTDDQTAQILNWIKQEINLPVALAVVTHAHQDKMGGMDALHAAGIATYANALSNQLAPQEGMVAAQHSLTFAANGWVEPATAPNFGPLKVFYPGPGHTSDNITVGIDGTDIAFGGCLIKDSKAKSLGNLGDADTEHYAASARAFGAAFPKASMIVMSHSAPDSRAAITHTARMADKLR
Procedure, shortened: (§3)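 Each enzyme (final 1 pM NDM-1, 2 pM IMP-1, 30 pM VIM-1) was incubated with test inhibitor (20 μM to 0.00063 μM) and 1.25 μM CCF2-FA for 2 hours at 25° C in zinc-supplemented phosphate buffer, pH 7. Fluorescence at 460 nm was then read and IC50 fitted with four parameters.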

[5] = system: P. aeruginosa MB9798 (efflux+, IMP-1 plasmid); conditions: for MB9798 MITC95 P. aeruginosa uM Efflux WT: efflux + (MB9798) strain, imipenem at 2 μg/mL, in the presence of a class A, C, D serine β-lactamase inhibitor closely related to relebactam; for Efflux ratio: fold difference between efflux+ (MB9798) and efflux− (MB9799) strains
Procedure, shortened: as §1

VIM-1 = VIM-1 (Pseudomonas aeruginosa (strain ATCC 15692 / DSM 22644 / CIP 104116 / JCM 14847 / LMG 12228 / 1C / PRS 101 / PAO1), UniProt A0A0F7KYQ8); assay: biochemical; conditions: CCF2-FA fluorescence assay, 2 hours at 25° C.; read-out: VIM1 IC50
Procedure, shortened: as §3

IMP-1 = IMP-1 (Serratia marcescens, UniProt P52699); assay: biochemical; conditions: CCF2-FA fluorescence assay, 2 hours at 25° C.; read-out: IMP1 IC50
Chain of IMP-1 (P52699 whole entry, looked up, species assumed): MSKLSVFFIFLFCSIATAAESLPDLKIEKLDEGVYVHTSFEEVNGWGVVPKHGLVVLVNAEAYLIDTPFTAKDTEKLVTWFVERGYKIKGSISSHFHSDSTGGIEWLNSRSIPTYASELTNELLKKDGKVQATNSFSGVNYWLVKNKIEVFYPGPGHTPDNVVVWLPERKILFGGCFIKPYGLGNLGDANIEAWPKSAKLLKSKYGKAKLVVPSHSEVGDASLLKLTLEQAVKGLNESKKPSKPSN
Procedure, shortened: as §3

NS(=O)(=O)c1c(S(=O)(=O)N[C@@H]2CCNC2)ccc(N2CC[C@@H](O)C2)c1-c1nnn[nH]1 [Example 99, 4-[(3R)-3-hydroxypyrrolidin-1-yl]-N1-[(3R)-pyrrolidin-3-yl]-3-(1H-tetrazol-5-yl)benzene-1,2-disulfonamide]
MB9799 MITC95 P. aeruginosa uM Efflux Mutant [1]: 3.13 µM
IHMA599644 K. pneumoniae MITC95 VIM [2]: 6.25 µM
CL5741 S. marcescens MITC95 IMP [3]: 3.13 µM
CLB30016 E. coli MITC95 NDM [4]: 1.56 µM
IC50 (VIM-2): 3.22 nM
IC50 (NDM-1): 0.92 nM
MB9798 MITC95 P. aeruginosa uM Efflux WT [5]: 3.13 µM
Efflux ratio [5]: 1.00
IC50 (VIM-1): 2.66 nM
IC50 (IMP-1): 1.33 nM

CN(C)CC1(O)CCN(c2ccc(S(=O)(=O)N[C@@H]3CCNC3)c(S(N)(=O)=O)c2-c2nnn[nH]2)CC1 [Example 100, 4-{4-[(dimethylamino)methyl]-4-hydroxypiperidin-1-yl}-N1-[(3R)-pyrrolidin-3-yl]-3-(1H-tetrazol-5-yl)benzene-1,2-disulfonamide]
MB9799 MITC95 P. aeruginosa uM Efflux Mutant [1]: 6.25 µM
IHMA599644 K. pneumoniae MITC95 VIM [2]: 12.50 µM
CL5741 S. marcescens MITC95 IMP [3]: 6.25 µM
CLB30016 E. coli MITC95 NDM [4]: 12.50 µM
IC50 (VIM-2): 162 nM
IC50 (NDM-1): 17.5 nM
MB9798 MITC95 P. aeruginosa uM Efflux WT [5]: 12.50 µM
Efflux ratio [5]: 2.00
IC50 (VIM-1): 12.4 nM
IC50 (IMP-1): 37 nM

NS(=O)(=O)c1c(S(=O)(=O)N[C@@H]2CCNC2)ccc(N2CCC(CO)CC2)c1-c1nnn[nH]1 [Example 101, 4-[4-(hydroxymethyl)piperidin-1-yl]-N1-[(3R)-pyrrolidin-3-yl]-3-(1H-tetrazol-5-yl)benzene-1,2-disulfonamide]
MB9799 MITC95 P. aeruginosa uM Efflux Mutant [1]: 0.78 µM
IHMA599644 K. pneumoniae MITC95 VIM [2]: 3.13 µM
CL5741 S. marcescens MITC95 IMP [3]: 1.56 µM
CLB30016 E. coli MITC95 NDM [4]: 0.78 µM
IC50 (VIM-2): 0.39 nM
IC50 (NDM-1): 0.08 nM
MB9798 MITC95 P. aeruginosa uM Efflux WT [5]: 1.56 µM
Efflux ratio [5]: 2.00
IC50 (VIM-1): 0.09 nM
IC50 (IMP-1): 0.16 nM

NS(=O)(=O)c1c(S(=O)(=O)N[C@@H]2CCNC2)ccc(N2CCN(CCO)CC2)c1-c1nnn[nH]1 [Example 102, 4-[4-(2-hydroxyethyl)piperazin-1-yl]-N1-[(3R)-pyrrolidin-3-yl]-3-(1H-tetrazol-5-yl)benzene-1,2-disulfonamide]
MB9799 MITC95 P. aeruginosa uM Efflux Mutant [1]: 1.56 µM
IHMA599644 K. pneumoniae MITC95 VIM [2]: 3.13 µM
CL5741 S. marcescens MITC95 IMP [3]: 0.20 µM
CLB30016 E. coli MITC95 NDM [4]: 0.20 µM
IC50 (VIM-2): 7.94 nM
IC50 (NDM-1): 1.35 nM
MB9798 MITC95 P. aeruginosa uM Efflux WT [5]: 3.13 µM
Efflux ratio [5]: 2.00
IC50 (VIM-1): 3.06 nM
IC50 (IMP-1): 2.07 nM

NS(=O)(=O)c1c(S(=O)(=O)N[C@@H]2CCNC2)ccc(N2CCOC(CO)C2)c1-c1nnn[nH]1 (stereo partly drawn) [Example 103, 4-[2-(hydroxymethyl)morpholin-4-yl]-N1-[(3R)-pyrrolidin-3-yl]-3-(1H-tetrazol-5-yl)benzene-1,2-disulfonamide]
MB9799 MITC95 P. aeruginosa uM Efflux Mutant [1]: 1.56 µM
IHMA599644 K. pneumoniae MITC95 VIM [2]: 6.25 µM
CL5741 S. marcescens MITC95 IMP [3]: 3.13 µM
CLB30016 E. coli MITC95 NDM [4]: 3.13 µM
IC50 (VIM-2): 0.59 nM
IC50 (NDM-1): 0.68 nM
MB9798 MITC95 P. aeruginosa uM Efflux WT [5]: 3.13 µM
Efflux ratio [5]: 2.00
IC50 (VIM-1): 0.42 nM
IC50 (IMP-1): 3.46 nM

NS(=O)(=O)c1c(S(=O)(=O)N[C@@H]2CCNC2)ccc(N2CCCCC(O)C2)c1-c1nnn[nH]1 (stereo partly drawn) [Example 104, 4-(3-hydroxyazepan-1-yl)-N1-[(3R)-pyrrolidin-3-yl]-3-(1H-tetrazol-5-yl)benzene-1,2-disulfonamide]
MB9799 MITC95 P. aeruginosa uM Efflux Mutant [1]: 1.56 µM
IHMA599644 K. pneumoniae MITC95 VIM [2]: 3.13 µM
CL5741 S. marcescens MITC95 IMP [3]: 3.13 µM
CLB30016 E. coli MITC95 NDM [4]: 3.13 µM
IC50 (VIM-2): 0.65 nM
IC50 (NDM-1): 0.68 nM
MB9798 MITC95 P. aeruginosa uM Efflux WT [5]: 3.13 µM
Efflux ratio [5]: 2.00
IC50 (VIM-1): 0.21 nM
IC50 (IMP-1): 2.06 nM

NS(=O)(=O)c1c(S(=O)(=O)N[C@@H]2CCNC2)ccc(N2CCOC(CCO)C2)c1-c1nnn[nH]1 (stereo partly drawn) [Example 105, 4-[2-(2-hydroxyethyl)morpholin-4-yl]-N1-[(3R)-pyrrolidin-3-yl]-3-(1H-tetrazol-5-yl)benzene-1,2-disulfonamide]
MB9799 MITC95 P. aeruginosa uM Efflux Mutant [1]: 6.25 µM
IHMA599644 K. pneumoniae MITC95 VIM [2]: 12.50 µM
CL5741 S. marcescens MITC95 IMP [3]: 6.25 µM
CLB30016 E. coli MITC95 NDM [4]: 6.25 µM
IC50 (VIM-2): 1.79 nM
IC50 (NDM-1): 0.25 nM
MB9798 MITC95 P. aeruginosa uM Efflux WT [5]: 12.50 µM
Efflux ratio [5]: 2.00
IC50 (VIM-1): 0.96 nM
IC50 (IMP-1): 1.16 nM

NS(=O)(=O)c1c(S(=O)(=O)N[C@@H]2CCNC2)ccc(N2CCC(Cc3ccccn3)CC2)c1-c1nnn[nH]1 [Example 106, 4-[4-(pyridin-2-ylmethyl)piperidin-1-yl]-N1-[(3R)-pyrrolidin-3-yl]-3-(1H-tetrazol-5-yl)benzene-1,2-disulfonamide]
MB9799 MITC95 P. aeruginosa uM Efflux Mutant [1]: 3.13 µM
IHMA599644 K. pneumoniae MITC95 VIM [2]: 6.25 µM
CL5741 S. marcescens MITC95 IMP [3]: 3.13 µM
CLB30016 E. coli MITC95 NDM [4]: 6.25 µM
IC50 (VIM-2): 0.46 nM
IC50 (NDM-1): 0.06 nM
MB9798 MITC95 P. aeruginosa uM Efflux WT [5]: 50.00 µM
Efflux ratio [5]: 16.00
IC50 (VIM-1): 0.1 nM
IC50 (IMP-1): 0.12 nM

NS(=O)(=O)c1c(S(=O)(=O)N[C@@H]2CCNC2)ccc(N2CCCC(CO)C2)c1-c1nnn[nH]1 (stereo partly drawn) [Example 107, 4-[3-(hydroxymethyl)piperidin-1-yl]-N1-[(3R)-pyrrolidin-3-yl]-3-(1H-tetrazol-5-yl)benzene-1,2-disulfonamide]
MB9799 MITC95 P. aeruginosa uM Efflux Mutant [1]: 1.56 µM
IHMA599644 K. pneumoniae MITC95 VIM [2]: 6.25 µM
CL5741 S. marcescens MITC95 IMP [3]: 3.13 µM
CLB30016 E. coli MITC95 NDM [4]: 3.13 µM
IC50 (VIM-2): 0.42 nM
IC50 (NDM-1): 0.25 nM
MB9798 MITC95 P. aeruginosa uM Efflux WT [5]: 3.13 µM
Efflux ratio [5]: 2.00
IC50 (VIM-1): 0.19 nM
IC50 (IMP-1): 1.1 nM

NS(=O)(=O)c1c(S(=O)(=O)N[C@@H]2CCNC2)ccc(N2CCCC(C(=O)NCCCO)C2)c1-c1nnn[nH]1 (stereo partly drawn) [Example 108, N-(3-hydroxypropyl)-1-{4-[(3R)-pyrrolidin-3-ylsulfamoyl]-3-sulfamoyl-2-(1H-tetrazol-5-yl)phenyl}piperidine-3-carboxamide]
MB9799 MITC95 P. aeruginosa uM Efflux Mutant [1]: 6.25 µM
IHMA599644 K. pneumoniae MITC95 VIM [2]: 12.50 µM
CL5741 S. marcescens MITC95 IMP [3]: 12.50 µM
CLB30016 E. coli MITC95 NDM [4]: 6.25 µM
IC50 (VIM-2): 1.77 nM
IC50 (NDM-1): 0.71 nM
MB9798 MITC95 P. aeruginosa uM Efflux WT [5]: 12.50 µM
Efflux ratio [5]: 2.00
IC50 (VIM-1): 0.5 nM
IC50 (IMP-1): 2.39 nM

NS(=O)(=O)c1c(S(=O)(=O)N[C@@H]2CCNC2)ccc(N2CCN(C(=O)CO)CC2)c1-c1nnn[nH]1 [Example 109, 4-[4-(hydroxyacetyl)piperazin-1-yl]-N1-[(3R)-pyrrolidin-3-yl]-3-(1H-tetrazol-5-yl)benzene-1,2-disulfonamide]
MB9799 MITC95 P. aeruginosa uM Efflux Mutant [1]: 3.13 µM
IHMA599644 K. pneumoniae MITC95 VIM [2]: 6.25 µM
CL5741 S. marcescens MITC95 IMP [3]: 3.13 µM
CLB30016 E. coli MITC95 NDM [4]: 3.13 µM
IC50 (VIM-2): 1.9 nM
IC50 (NDM-1): 0.51 nM
MB9798 MITC95 P. aeruginosa uM Efflux WT [5]: 3.13 µM
Efflux ratio [5]: 1.00
IC50 (VIM-1): 0.43 nM
IC50 (IMP-1): 2.21 nM
